Values joined by “and” are separate entries in the source; they are usually repeats but may differ in a detail not shown here. Equal values may be shown once.
Legend:
[1] = molecular target: T1, glutathione reductase (GR) (Homo sapiens, UniProt P00390); assay: Effect on GR activity; assay type: biochemical; settings: samples 3 mM/dm^3 in DMSO; mean ± SEM, n = 3
T1 sequence (P00390 44-522): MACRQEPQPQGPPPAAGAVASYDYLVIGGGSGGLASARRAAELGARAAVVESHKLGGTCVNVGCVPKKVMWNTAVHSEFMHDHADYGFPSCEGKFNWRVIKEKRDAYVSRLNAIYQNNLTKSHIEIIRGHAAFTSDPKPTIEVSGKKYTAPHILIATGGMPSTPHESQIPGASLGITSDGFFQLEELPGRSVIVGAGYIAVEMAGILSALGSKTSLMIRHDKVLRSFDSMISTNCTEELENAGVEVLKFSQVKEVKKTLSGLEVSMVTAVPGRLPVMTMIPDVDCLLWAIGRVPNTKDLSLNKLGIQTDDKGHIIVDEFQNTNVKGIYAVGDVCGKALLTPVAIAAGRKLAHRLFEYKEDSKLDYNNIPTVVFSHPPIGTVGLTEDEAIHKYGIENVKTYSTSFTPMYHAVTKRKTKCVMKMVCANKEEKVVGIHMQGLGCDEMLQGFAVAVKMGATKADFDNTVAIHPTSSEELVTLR
Procedure: (§1) We decided to extend the study by measuring the compounds’ ability to inhibit glutathione reductase (GR) and GPx activities, the human cells’ main endogenous enzymatic defence systems. Therefore, we checked the influence of some curcuminoid chalcones on GR and GPx using in vitro spectroscopic methods (Table 2). Moreover, the effects of curcuminoid chalcones on CAT activity were estimated (Table 2).
(§2) The samples were dissolved in DMSO (Sigma D4540) to obtain a concentration of 3 mM/dm^3.
(§3) The analyses were performed strictly as described by Studzińska-Sroka et al..

[2] = Hydroxyl radical antioxidant capacity (HORAC); settings: samples 1 mg/mL DMSO; mean ± SEM, n = 3
COX-2 = molecular target: T2, COX-2 (Homo sapiens, UniProt P35354); assay: Effect on COX-2 activity; assay type: biochemical; settings: samples 3 mM/dm^3 in DMSO, 0.02 mL; mean ± SEM, n = 3
T2 sequence (P35354 18-604): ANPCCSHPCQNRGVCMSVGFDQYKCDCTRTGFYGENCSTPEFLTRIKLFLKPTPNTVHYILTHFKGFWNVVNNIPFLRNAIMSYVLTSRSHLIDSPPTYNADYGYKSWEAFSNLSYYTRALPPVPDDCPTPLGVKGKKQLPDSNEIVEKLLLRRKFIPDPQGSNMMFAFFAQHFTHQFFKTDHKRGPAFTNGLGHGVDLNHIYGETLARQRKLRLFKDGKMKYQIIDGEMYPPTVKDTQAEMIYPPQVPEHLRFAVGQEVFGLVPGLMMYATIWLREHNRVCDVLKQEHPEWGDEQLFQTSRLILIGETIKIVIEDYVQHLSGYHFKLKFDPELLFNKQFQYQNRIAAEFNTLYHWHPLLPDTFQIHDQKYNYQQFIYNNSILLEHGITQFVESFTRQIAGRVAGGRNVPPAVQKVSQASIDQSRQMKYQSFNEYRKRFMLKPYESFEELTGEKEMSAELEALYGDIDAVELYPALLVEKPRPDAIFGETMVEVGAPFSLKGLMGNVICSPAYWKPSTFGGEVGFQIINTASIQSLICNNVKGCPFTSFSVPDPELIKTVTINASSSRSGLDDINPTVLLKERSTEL

[3] = Photostability in the solid state (IR spectra of KBr tablets); settings: for ICH Classification: light, solid phase; for Compatibility of the IR spectrum with the spectrum before irradiation: solid phase (KBr tablet)
[4] = Stress test: strong acid, strong base and neutral degradation (RP-HPLC); assay type: physicochemical
Procedure: Several tests were conducted using the ICH guidelines to assess the compound’s stability. In the stress test, two structural isomers of ester-type hybrid compounds were chosen to estimate the structure’s relationship to the compound’s stability. The tested substances were subjected to hydrolysis–solvolysis in neutral, acidic, and alkaline media. As solvents, water, hydrochloric acid, and sodium hydroxide were used in appropriate concentrations.
Reversed-phase HPLC was used to analyse the degree of degradation. Chromatograms were developed with DAD detection at 254 nm, 308 nm (λmax for 2), and 340 nm (λmax for 6). […] .
Then, 2.0 mL samples of the tested solutions (c ~60 µg/mL) were prepared in hydrochloric acid (0.1; 0.01 M) or sodium hydroxide solution (0.1, 0.01 M) and demineralised water. The solutions were transferred to glass vials, encapsulated, and stored in a thermal chamber at 90 °C, 40 °C, or 25 °C. After the appropriate time (Table 1), the samples were cooled, diluted with methanol (1:1), and transferred to the chromatography column.

[5] = Photostability in the solutions (RP-HPLC); assay type: physicochemical; settings: MeOH solution; for % Decomposition / Ct: 1.2 × 10^6 lux·h, 22 h; for ICH Classification: light
Procedure: However, as a result of the action of light, both compounds degraded completely (Table 6, Figure 12). The study was conducted in methanol solutions, irradiated in quartz cuvettes, and in solutions protected from light (aluminium foil). […] During irradiation, the temperature in the Suntest chamber was 35 °C. It was, therefore, concluded that both compounds are photolabile in solutions. […] The visible peaks with Rt values of 6.3 (Figure 12a,c) and 4.4 min (Figure 12b,d) were impurities of compounds 2 and 6, respectively.
Stock solutions of the test substances (2 or 6) were prepared by dissolving 1 mg of each test substance in 1.5 mL of a mixture of DMSO and MeOH (1:6, v/v). Then, 5 mL solutions of the tested compounds (c ~ 15 µg/mL) in MeOH were prepared. […] Each of the samples (protected and irradiated) was transferred to the chromatographic column. Samples before irradiation were also subjected to chromatographic analysis (t = 0) (Table 2).

[6] = tested on: glutathione peroxidase (GPx); assay: Effect on GPx activity; assay type: biochemical; settings: samples 3 mM/dm^3 in DMSO; mean ± SEM, n = 3
Procedure: as §1, §2, §3

BChE = BChE (Homo sapiens, UniProt P06276); assay type: biochemical; settings: samples 3 mM/dm^3 in DMSO, 0.035 mL; mean ± SEM, n = 3
Chain of BChE (P06276 29-602, species assumed): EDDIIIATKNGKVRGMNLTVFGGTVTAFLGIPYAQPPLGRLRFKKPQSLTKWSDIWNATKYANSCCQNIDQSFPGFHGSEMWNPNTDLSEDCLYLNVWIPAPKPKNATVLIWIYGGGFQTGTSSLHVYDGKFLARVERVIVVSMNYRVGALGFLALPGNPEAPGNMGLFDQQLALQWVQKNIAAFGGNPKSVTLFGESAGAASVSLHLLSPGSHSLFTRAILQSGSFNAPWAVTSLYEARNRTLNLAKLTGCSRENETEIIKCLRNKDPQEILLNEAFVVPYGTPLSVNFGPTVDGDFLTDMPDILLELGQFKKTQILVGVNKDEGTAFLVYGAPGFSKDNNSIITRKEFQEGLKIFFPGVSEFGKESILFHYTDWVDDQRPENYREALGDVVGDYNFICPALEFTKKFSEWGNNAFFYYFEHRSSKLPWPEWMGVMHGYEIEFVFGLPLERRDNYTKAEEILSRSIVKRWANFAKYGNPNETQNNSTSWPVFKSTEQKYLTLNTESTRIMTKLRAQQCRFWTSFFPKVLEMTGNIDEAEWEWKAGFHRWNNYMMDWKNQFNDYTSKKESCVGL

[7] = not protected, 1.2 × 10^6 lux·h
[8] = not protected, 6.0 × 10^6 lux·h
[9] = acidic environment, HCl 0.01 M, 40 °C, 8 h
[10] = alkaline environment, NaOH 0.01 M, 25 °C, 2 h
[11] = neutral environment, H2O, 90 °C, 24 h
[12] = protected from light (aluminium foil), 35 °C

Question: Which results are given for `COc1ccc(C=CC(=O)c2ccccc2)cc1OC(=O)C(C)c1ccc(CC(C)C)cc1` (stereo not drawn) [Compound 6, 2-Methoxy-5-(3-oxo-3-phenylprop-1-en-1-yl)phenyl-2-(4-isobutylphenyl)-propionate]?
Answer: GR Inhibition (%) [1]: did not inhibit and -; HORAC, Gallic Acid Equivalents [2]: 20.4 ± 3.0 µg/mL; COX-2 Inhibition (%) (COX-2): -; ICH Classification [3]: Photolabile; Compatibility of the IR spectrum with the spectrum before irradiation [3, 7]: 0.9962; Compatibility of the IR spectrum with the spectrum before irradiation [3, 8]: 0.9752; Compatibility of the IR spectrum with the spectrum before irradiation ([3]; protected, 1.2 × 10^6 lux·h): 0.9997; Compatibility of the IR spectrum with the spectrum before irradiation ([3]; protected, 6.0 × 10^6 lux·h): 0.9993; % Decomposition ([4]; H2O, 90 °C, 24 h): 23.9%; Ct ([4]; H2O, 90 °C, 24 h): 50.9 µg/mL; % Decomposition ([4]; HCl 0.01 M, 40 °C, 8 h): 18% and 17.8%; Ct ([4]; HCl 0.01 M, 40 °C, 8 h): 49.3 µg/mL; % Decomposition ([4]; HCl 0.1 M, 90 °C, 16 h): 97.8%; Ct ([4]; HCl 0.1 M, 90 °C, 16 h): 1.5 µg/mL; % Decomposition ([4]; NaOH 0.01 M, 25 °C, 2 h): 100%; Ct ([4]; NaOH 0.01 M, 25 °C, 2 h): 0 µg/mL; % Decomposition ([4]; NaOH 0.1 M, 90 °C, 16 h): 100%; Ct ([4]; NaOH 0.1 M, 90 °C, 16 h): 0 µg/mL; ICH Classification [4, 9]: very unstable; ICH Classification [4, 10]: extremely unstable; ICH Classification [4, 11]: unstable; % Decomposition ([5]; not protected): 100%; Ct ([5]; not protected): 0 µg/mL; % Decomposition [5, 12]: 7.9%; Ct [5, 12]: 13.8 µg/mL; ICH Classification [5]: Photolabile; GPx Inhibition (%) [6]: 17.4 ± 1.7%; GPx activity (NADPH consumption rate) [6]: 34.6 ± 3.3 nmol Depleted NADPH/min; BChE % (inhibition) (BChE): 77.3 ± 5.2%; BChE, Equivalent Concentration of Reference Compound Magniflorine (BChE): 0.30 ± 0.02 µg/mL; BChE, Equivalent Concentration of Reference Compound Rivastigmine (BChE): 0.22 ± 0.02 µg/mL

Question: Which “GR Inhibition (%)” value [1] does the source give for `COc1cc(C=CC(=O)c2ccccc2)ccc1OC(=O)C(C)c1ccc(CC(C)C)cc1` (stereo not drawn) [Compound 2, 2-Methoxy-4-(3-oxo-3-phenylprop-1-en-1-yl)phenyl-2-(4-isobutylphenyl)-propionate] here?
Answer: 27.1 ± 4.0%

Question: What about the “GR activity (NADPH consumption rate)” value [1] of the same compound?
Answer: 1018 ± 150 nmol Depleted NADPH/min

Question: And the “HORAC, Gallic Acid Equivalents” value [2]?
Answer: 24.2 ± 2.3 µg/mL

Question: What about the “COX-2 Inhibition (%)” value (COX-2) of the same compound?
Answer: -

Question: And the ICH Classification [3]?
Answer: Photolabile

Question: And the “Compatibility of the IR spectrum with the spectrum before irradiation” value (from here on “Compatibility of the IR spectrum”) [3, 7]?
Answer: 0.9404

Question: What about the “Compatibility of the IR spectrum” value [3, 8] of the same compound?
Answer: 0.9017

Question: What about the “Compatibility of the IR spectrum” value ([3]; protected, 1.2 × 10^6 lux·h) of the same compound?
Answer: 0.9995

Question: What about the “Compatibility of the IR spectrum” value ([3]; protected, 6.0 × 10^6 lux·h) of the same compound?
Answer: 0.9994

Question: And the “% Decomposition” value ([4]; H2O, 90 °C, 24 h)?
Answer: 24.4%

Question: And the Ct ([4]; H2O, 90 °C, 24 h)?
Answer: 46.3 µg/mL

Question: What about the “% Decomposition” value ([4]; HCl 0.01 M, 40 °C, 8 h) of the same compound?
Answer: 44% and 43.8%

Question: And the Ct ([4]; HCl 0.01 M, 40 °C, 8 h)?
Answer: 33.7 µg/mL

Question: What about the “% Decomposition” value ([4]; HCl 0.1 M, 90 °C, 16 h) of the same compound?
Answer: 91.8%

Question: And the Ct ([4]; HCl 0.1 M, 90 °C, 16 h)?
Answer: 5.0 µg/mL

Question: What about the “% Decomposition” value ([4]; NaOH 0.01 M, 25 °C, 2 h) of the same compound?
Answer: 100%

Question: What about the Ct ([4]; NaOH 0.01 M, 25 °C, 2 h) of the same compound?
Answer: 0 µg/mL

Question: And the “% Decomposition” value ([4]; NaOH 0.1 M, 90 °C, 16 h)?
Answer: 100%

Question: And the Ct ([4]; NaOH 0.1 M, 90 °C, 16 h)?
Answer: 0 µg/mL

Question: What about the “ICH Classification” value [4, 9] of the same compound?
Answer: very unstable

Question: And the “ICH Classification” value [4, 10]?
Answer: extremely unstable

Question: And the “ICH Classification” value [4, 11]?
Answer: unstable

Question: What about the “% Decomposition” value ([5]; not protected) of the same compound?
Answer: 100%

Question: And the Ct ([5]; not protected)?
Answer: 0 µg/mL

Question: What about the “% Decomposition” value [5, 12] of the same compound?
Answer: 68% and 68.2%

Question: What about the Ct [5, 12] of the same compound?
Answer: 4.8 µg/mL

Question: And the “ICH Classification” value [5]?
Answer: Photolabile

Question: What about the “GPx Inhibition (%)” value [6] of the same compound?
Answer: 17.0 ± 3.4%

Question: And the “GPx activity (NADPH consumption rate)” value [6]?
Answer: 33.8 ± 6.8 nmol Depleted NADPH/min

Question: And the “BChE % (inhibition)” value (BChE)?
Answer: 89.7 ± 4.8%

Question: And the “BChE, Equivalent Concentration of Reference Compound Magniflorine” value (BChE)?
Answer: 0.35 ± 0.02 µg/mL

Question: And the “BChE, Equivalent Concentration of Reference Compound Rivastigmine” value (BChE)?
Answer: 0.26 ± 0.01 µg/mL
